This is an account of results in US20250270200A1, “CTPS1 INHIBITORS AND USES THEREOF” (Nimbus Clotho, Inc., priority 2022, published 2025).

The assay concerns the target T1, human CTPS1 (Homo sapiens, UniProt P17812).
T1 sequence (P17812 1-591): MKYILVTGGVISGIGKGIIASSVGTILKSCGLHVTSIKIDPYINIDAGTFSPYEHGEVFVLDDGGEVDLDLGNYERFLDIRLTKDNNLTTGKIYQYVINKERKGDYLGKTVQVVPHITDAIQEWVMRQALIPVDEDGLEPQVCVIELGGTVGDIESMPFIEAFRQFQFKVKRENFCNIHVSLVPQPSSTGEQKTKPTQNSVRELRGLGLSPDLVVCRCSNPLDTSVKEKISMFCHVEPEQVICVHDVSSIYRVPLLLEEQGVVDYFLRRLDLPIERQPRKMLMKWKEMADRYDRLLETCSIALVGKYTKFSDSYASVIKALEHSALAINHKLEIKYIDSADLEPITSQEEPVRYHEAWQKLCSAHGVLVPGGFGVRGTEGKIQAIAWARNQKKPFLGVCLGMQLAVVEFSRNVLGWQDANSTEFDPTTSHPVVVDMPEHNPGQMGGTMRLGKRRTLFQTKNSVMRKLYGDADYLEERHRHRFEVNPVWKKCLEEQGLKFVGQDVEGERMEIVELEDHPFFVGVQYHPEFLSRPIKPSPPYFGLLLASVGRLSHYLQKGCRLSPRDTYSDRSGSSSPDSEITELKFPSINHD
Kind of assay: ADP-Glo assay, human CTPS1 enzyme inhibition. As to conditions: wild-type human CTPS1, 25 nM enzyme; ADP-Glo; read-out: ADP-Glo_WT_hCTPS1—25 nM_IC50 (IC50). The class given is biochemical. Put shortly:
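Full-length tagged human CTPS1 (25 nM) pre-incubated 10 min at 25° C with compound, then 10 min with ATP (120 μM) and UTP (160 μM); reaction started with L-glutamine (100 μM) and GTP (60 μM), 1% DMSO, in HEPES pH 7.4, 10 mM Mg2+, 5 mM KCl, 2 mM DTT. Run within linear phase at 25° C; ADP measured by ADP-Glo luminescence.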
Background: In ADP-Glo the light output rises with the ADP produced.

Usually IC50 stands for the concentration needed to halve the response being measured.

Take `CCOc1cncc(-c2cnc(C(=O)N[C@H](c3cc(NS(=O)(=O)C4CC4)ncn3)[C@@H]3CCOC3)s2)n1` [I-256, N-((S)-(6-(cyclopropanesulfonamido)pyrimidin-4-yl)((S)-tetrahydrofuran-3-yl)methyl)-5-(6-ethoxypyrazin-2-yl)thiazole-2-carboxamide]: the IC50 lay within 5 to 25 nM.
The value for `CCOc1cncc(-c2cnc(C(=O)N[C@@H](c3cc(NS(=O)(=O)C4CC4)ncn3)[C@@H]3CCOC3)s2)n1` [I-257, N-((R)-(6-(cyclopropanesulfonamido)pyrimidin-4-yl)((S)-tetrahydrofuran-3-yl)methyl)-5-(6-ethoxypyrazin-2-yl)thiazole-2-carboxamide] was 5 to 25 nM.
In the case of `CCOc1cncc(-c2cnc(C(=O)N[C@@H](c3cc(NS(=O)(=O)C4CC4)ncn3)[C@H]3CCOC3)s2)n1` [I-258, N-((R)-(6-(cyclopropanesulfonamido)pyrimidin-4-yl)((R)-tetrahydrofuran-3-yl)methyl)-5-(6-ethoxypyrazin-2-yl)thiazole-2-carboxamide], the IC50 lay within 5 to 25 nM.
Then `CCOc1cncc(-c2cnc(C(=O)N[C@H](c3cc(NS(=O)(=O)C4CC4)ncn3)[C@H]3CCOC3)s2)n1` [I-259, N-((S)-(6-(cyclopropanesulfonamido)pyrimidin-4-yl)((R)-tetrahydrofuran-3-yl)methyl)-5-(6-ethoxypyrazin-2-yl)thiazole-2-carboxamide], with 5 to 25 nM; and `O=C(N[C@H](c1ccnc(NS(=O)(=O)C2CC2)n1)[C@H]1CCOC1)c1ncc(-c2cnn3ccc(Cl)cc23)s1` [I-260, 5-(5-chloropyrazolo[1,5-a]pyridin-3-yl)-N-((S)-(2-(cyclopropanesulfonamido)pyrimidin-4-yl)((R)-tetrahydrofuran-3-yl)methyl)thiazole-2-carboxamide], with 5 to 25 nM.
For the compound `O=C(N[C@H](c1ccnc(NS(=O)(=O)C2CC2)n1)[C@@H]1CCOC1)c1ncc(-c2cnn3ccc(Cl)cc23)s1` [I-261, 5-(5-chloropyrazolo[1,5-a]pyridin-3-yl)-N-((S)-(2-(cyclopropanesulfonamido)pyrimidin-4-yl)((S)-tetrahydrofuran-3-yl)methyl)thiazole-2-carboxamide], the IC50 was 5 to 25 nM.
Then `CCOc1cncc(-c2cnc(C(=O)N[C@@H](CO)c3cc(NS(=O)(=O)C4CC4)ccn3)s2)n1` [I-262, (R)-N-(1-(4-(cyclopropanesulfonamido)pyridin-2-yl)-2-hydroxyethyl)-5-(6-ethoxypyrazin-2-yl)thiazole-2-carboxamide], with 25 to 50 nM; and `CCOc1cncc(-c2cnc(C(=O)N[C@H](CO)c3cc(NS(=O)(=O)C4CC4)ccn3)s2)n1` [I-263, (S)-N-(1-(4-(cyclopropanesulfonamido)pyridin-2-yl)-2-hydroxyethyl)-5-(6-ethoxypyrazin-2-yl)thiazole-2-carboxamide], with 5 to 25 nM; and `CCOc1cncc(-c2cnc(C(=O)N[C@H](c3cc(NS(=O)(=O)C4CC4)ccn3)[C@@H](C)O)s2)n1` [I-264, N-((1R,2R)-1-(4-(cyclopropanesulfonamido)pyridin-2-yl)-2-hydroxypropyl)-5-(6-ethoxypyrazin-2-yl)thiazole-2-carboxamide], with 5 to 25 nM.
Consider `CCOc1cncc(-c2cnc(C(=O)N[C@@H](c3cc(NS(=O)(=O)C4CC4)ccn3)[C@@H](C)O)s2)n1` [I-265, N-((1S,2R)-1-(4-(cyclopropanesulfonamido)pyridin-2-yl)-2-hydroxypropyl)-5-(6-ethoxypyrazin-2-yl)thiazole-2-carboxamide], for which the IC50 is 5 to 25 nM.
As to `CCOc1cncc(-c2cnc(C(=O)N[C@H](c3cc(NS(=O)(=O)C4CC4)ccn3)[C@H](C)O)s2)n1` [I-266, N-((1R,2S)-1-(4-(cyclopropanesulfonamido)pyridin-2-yl)-2-hydroxypropyl)-5-(6-ethoxypyrazin-2-yl)thiazole-2-carboxamide], the IC50 is 5 to 25 nM.
Then `CCOc1cncc(-c2cnc(C(=O)N[C@H](c3cc(NS(=O)(=O)C4CC4)ccn3)[C@@H](C)O)s2)n1` [I-267, N-((1R,2R)-1-(4-(cyclopropanesulfonamido)pyridin-2-yl)-2-hydroxypropyl)-5-(6-ethoxypyrazin-2-yl)thiazole-2-carboxamide], with 5 to 25 nM; and `CCOc1cncc(-c2cnc(C(=O)N[C@H](COC)c3ccnc(NS(=O)(=O)C4CC4)n3)s2)n1` [I-268, (S)-N-(1-(2-(cyclopropanesulfonamido)pyrimidin-4-yl)-2-methoxyethyl)-5-(6-ethoxypyrazin-2-yl)thiazole-2-carboxamide], with 25 to 50 nM.
Then `CCOc1cncc(-c2cnc(C(=O)N[C@@H](c3cc(NS(=O)(=O)C4CC4)ccn3)[C@@H](C)O)s2)n1` [I-269, N-((1S,2R)-1-(4-(cyclopropanesulfonamido)pyridin-2-yl)-2-hydroxypropyl)-5-(6-ethoxypyrazin-2-yl)thiazole-2-carboxamide], with at most 5 nM.
As for `CCOc1cncc(-c2cnc(C(=O)N[C@@H](c3cc(NS(=O)(=O)C4CC4)ccn3)[C@H](C)O)s2)n1` [I-270, N-((1S,2S)-1-(4-(cyclopropanesulfonamido)pyridin-2-yl)-2-hydroxypropyl)-5-(6-ethoxypyrazin-2-yl)thiazole-2-carboxamide], the IC50 was at most 5 nM.
Consider `C[C@@H](O)[C@H](NC(=O)c1ncc(-c2cnn3ccc(Cl)cc23)s1)c1cc(NS(=O)(=O)C2CC2)ccn1` [I-271, 5-(5-chloropyrazolo[1,5-a]pyridin-3-yl)-N-((1R,2R)-1-(4-(cyclopropanesulfonamido)pyridin-2-yl)-2-hydroxypropyl)thiazole-2-carboxamide], for which the IC50 was in the range of 5 to 25 nM.
Consider `C[C@H](O)[C@H](NC(=O)c1ncc(-c2cnn3ccc(Cl)cc23)s1)c1cc(NS(=O)(=O)C2CC2)ccn1` [I-272, 5-(5-chloropyrazolo[1,5-a]pyridin-3-yl)-N-((1R,2S)-1-(4-(cyclopropanesulfonamido)pyridin-2-yl)-2-hydroxypropyl)thiazole-2-carboxamide], for which the IC50 lay in the range of 5 to 25 nM.
Then `C[C@H](O)[C@@H](NC(=O)c1ncc(-c2cnn3ccc(Cl)cc23)s1)c1cc(NS(=O)(=O)C2CC2)ccn1` [I-273, 5-(5-chloropyrazolo[1,5-a]pyridin-3-yl)-N-((1S,2S)-1-(4-(cyclopropanesulfonamido)pyridin-2-yl)-2-hydroxypropyl)thiazole-2-carboxamide], with 5 to 25 nM; and `C[C@@H](O)[C@@H](NC(=O)c1ncc(-c2cnn3ccc(Cl)cc23)s1)c1cc(NS(=O)(=O)C2CC2)ccn1` [I-274, 5-(5-chloropyrazolo[1,5-a]pyridin-3-yl)-N-((1S,2R)-1-(4-(cyclopropanesulfonamido)pyridin-2-yl)-2-hydroxypropyl)thiazole-2-carboxamide], with 5 to 25 nM.
As for `CCOc1cncc(-c2cnc(C(=O)N[C@@H](c3cc(NS(=O)(=O)C4CC4)ccn3)C(C)(C)O)s2)n1` [I-275, (S)-N-(1-(4-(cyclopropanesulfonamido)pyridin-2-yl)-2-hydroxy-2-methylpropyl)-5-(6-ethoxypyrazin-2-yl)thiazole-2-carboxamide], the IC50 fell in the range of 25 to 50 nM.
For the compound `CCOc1cncc(-c2cnc(C(=O)N[C@H](c3cc(NS(=O)(=O)C4CC4)ccn3)C(C)(C)O)s2)n1` [I-276, (R)-N-(1-(4-(cyclopropanesulfonamido)pyridin-2-yl)-2-hydroxy-2-methylpropyl)-5-(6-ethoxypyrazin-2-yl)thiazole-2-carboxamide], the IC50 is 5 to 25 nM.
